In US6326177A, “Method and apparatus for intracellular electro-manipulation” (Eastern Virginia Medical School of the Medical College of …, priority 2000, dated 2001):
“Also recorded” adds a separate entry of the source.

What was measured:
[1] = tested on: eosinophils; experiment: Free calcein staining of eosinophil granules after Triton X-100 treatment (fluorescence and Wright-Giemsa microscopy); format: cell-based, human; details: 5 minutes
Protocol: BOTTOM ROW: Wright-Giemsa stained (above) and fluorescent (below) images of eosinophils treated with 1 μM free calcein+0.005% Triton X-100 for 5 minutes (left), eosinophils treated with 0.01% Triton X-100+1 μM free calcein (5 minutes) (center) and eosinophils incubated in 0.05% Triton X-100+1 μM free calcein for 5 minutes.
Free calcein is a highly fluorescent modified fluorescein with 6 negative and 2 positive charges that is membrane impermeant. In its methyl ester form, calcein-AM, it is non-fluorescent and membrane permeable. When used as a fluorescent stain for cells, calcein-AM passes through the surface membrane and is cleaved to free calcein+the methyl ester residue by intracellular esterase activities. This modification traps the free calcein in the cytoplasm of the cell, and retention of the free calcein is a common criterion for intactness of the surface membrane.

[2] = tested on: PMN; experiment: Triton X-100 effect on PMN in the free calcein staining experiment; format: cell-based, human; details: 5 minutes
Protocol: Aliquots of an eosinophil-enriched leukocyte preparation (65% eosinophils) were exposed to 1 μM free calcein in HBSSw/o plus increasing amounts (0%-0.05%) Triton X-100 (5 minutes, 25° C.) and examined microscopically. […] Red eosinophil autofluorescence was readily visible and was also visible in all conditions up to and including the free calcein +0.01% Triton exposure. […] After Wright-Giemsa staining, these were recognized to be the residual nuclei of fully detergent-solubilized cells (pale green fluorescence) with associated eosinophilic granules corresponding exactly to the punctate areas of bright fluorescence (see FIG. 26).
Calcein-AM stained eosinophils trap free calcein in their cytoplasm after staining (left), and the intracellular free calcein is excluded from the eosinophil's large granules as shown on the left.

[3] = 0.001% Triton X-100 + 1 μM free calcein
[4] = 0.005% Triton X-100 + 1 μM free calcein

Compound	calcein staining of eosinophils exposed to free calcein without Triton ([1]; 1 μM free calcein in HBSSw/o, 0% Triton, 25° C.)	free calcein staining / detergent effect on eosinophils [1, 3]	free calcein staining / detergent effect on eosinophils [1, 4]	free calcein staining / detergent effect on eosinophils ([1]; 0.01% Triton X-100 + 1 μM free calcein)	free calcein staining / detergent effect on eosinophils ([1]; 0.05% Triton X-100 + 1 μM free calcein)	free calcein staining / detergent effect on PMN [2, 3]	free calcein staining / detergent effect on PMN [2, 4]
O=C(O)CN(CC(=O)O)Cc1cc2c(cc1O)Oc1cc(O)c(CN(CC(=O)O)CC(=O)O)cc1C21OC(=O)c2ccccc21 [free calcein]	no calcein staining; also recorded: incapable of staining eosinophil cytoplasm	–	–	–	–	–	–
Triton X-100	–	free calcein continues to be excluded from eosinophils	the morphology of some eosinophils suggests partial detergent solubilization which is accompanied by bright free calcein staining of eosinophil granules	occasional eosinophils showed an isolated bright green granule within the eosinophil autofluorescence pattern; also recorded: all eosinophils show nuclear changes suggestive of detergent effect, and many contain 1-2 bright granules on a background of red autofluorescence	many discrete areas of pale green fluorescence with overlying, bright green punctate areas of fluorescence; also recorded: only eosinophil nuclear remnants are seen	stains the fine granules of a PMN showing obvious detergent effects	detergent solubilized PMN show very fine, fluorescent "calcein sand" staining patterns
